The text below walks through data of ChEMBL document CHEMBL5584244, “Discovery of novel pyrrolo[2,1-c][1,4]benzodiazepine-3,11-dione (PBD) derivatives as selective HDAC6 inhibitors for the efficient treatment of idiopathic pulmonary fibrosis (IPF) in vitro and in vivo” (Eur J Med Chem, 2024).

The target in data set [1] is T1, Protein deacetylase HDAC6 (Homo sapiens, UniProt Q9UBN7).
T1 sequence (Q9UBN7 whole entry): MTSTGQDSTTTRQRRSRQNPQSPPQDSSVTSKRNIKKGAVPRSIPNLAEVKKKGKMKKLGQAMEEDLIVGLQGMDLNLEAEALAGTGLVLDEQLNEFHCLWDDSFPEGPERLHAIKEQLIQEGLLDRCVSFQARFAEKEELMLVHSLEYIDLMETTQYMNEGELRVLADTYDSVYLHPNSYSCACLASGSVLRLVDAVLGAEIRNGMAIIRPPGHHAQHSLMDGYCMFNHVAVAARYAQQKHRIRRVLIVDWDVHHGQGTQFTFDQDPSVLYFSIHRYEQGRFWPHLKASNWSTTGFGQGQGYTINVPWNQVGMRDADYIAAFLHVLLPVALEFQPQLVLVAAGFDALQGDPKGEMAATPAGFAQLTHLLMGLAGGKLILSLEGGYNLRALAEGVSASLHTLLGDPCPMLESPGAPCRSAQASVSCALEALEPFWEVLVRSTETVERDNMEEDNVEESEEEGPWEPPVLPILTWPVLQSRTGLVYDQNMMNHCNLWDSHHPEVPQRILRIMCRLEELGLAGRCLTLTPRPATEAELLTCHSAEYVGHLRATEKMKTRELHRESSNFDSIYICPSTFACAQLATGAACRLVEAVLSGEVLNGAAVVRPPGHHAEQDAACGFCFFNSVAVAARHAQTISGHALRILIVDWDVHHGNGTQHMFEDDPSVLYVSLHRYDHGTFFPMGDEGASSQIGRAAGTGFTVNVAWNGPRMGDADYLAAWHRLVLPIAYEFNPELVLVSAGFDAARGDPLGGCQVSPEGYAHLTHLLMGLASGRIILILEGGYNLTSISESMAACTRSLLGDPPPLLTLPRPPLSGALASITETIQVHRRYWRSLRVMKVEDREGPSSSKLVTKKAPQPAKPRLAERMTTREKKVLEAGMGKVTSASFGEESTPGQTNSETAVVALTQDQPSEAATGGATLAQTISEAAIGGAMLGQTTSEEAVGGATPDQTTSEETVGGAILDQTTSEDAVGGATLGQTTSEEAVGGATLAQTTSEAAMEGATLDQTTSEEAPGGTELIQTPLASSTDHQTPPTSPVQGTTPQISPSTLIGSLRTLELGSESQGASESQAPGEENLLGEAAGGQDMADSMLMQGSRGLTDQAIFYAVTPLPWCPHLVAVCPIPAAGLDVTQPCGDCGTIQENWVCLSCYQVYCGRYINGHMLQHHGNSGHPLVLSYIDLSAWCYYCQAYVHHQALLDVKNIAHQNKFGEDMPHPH
As to the kind of experiment: Inhibition of recombinant human full length HDAC6 using Boc-Lys (Ac)-AMC as substrate incubated for 120 mins by fluorescence analysis.

For another data set, the species on record is Homo sapiens. Put plainly: Selectivity index, ratio IC50 for C-terminal His6/Flag-tagged recombinant human full length HDAC1 to IC50 for inhibition of recombinant human full length HDAC6.
A further data set has as its target Histone deacetylase 4 (Homo sapiens, UniProt P56524). Put plainly: Inhibition of recombinant human HDAC4 using Boc-Lys (Ac)-AMC as substrate incubated for 120 mins by fluorescence analysis.
The target in a further data set is T2, Histone deacetylase 7 (Homo sapiens, UniProt Q8WUI4).
T2 sequence (Q8WUI4 whole entry): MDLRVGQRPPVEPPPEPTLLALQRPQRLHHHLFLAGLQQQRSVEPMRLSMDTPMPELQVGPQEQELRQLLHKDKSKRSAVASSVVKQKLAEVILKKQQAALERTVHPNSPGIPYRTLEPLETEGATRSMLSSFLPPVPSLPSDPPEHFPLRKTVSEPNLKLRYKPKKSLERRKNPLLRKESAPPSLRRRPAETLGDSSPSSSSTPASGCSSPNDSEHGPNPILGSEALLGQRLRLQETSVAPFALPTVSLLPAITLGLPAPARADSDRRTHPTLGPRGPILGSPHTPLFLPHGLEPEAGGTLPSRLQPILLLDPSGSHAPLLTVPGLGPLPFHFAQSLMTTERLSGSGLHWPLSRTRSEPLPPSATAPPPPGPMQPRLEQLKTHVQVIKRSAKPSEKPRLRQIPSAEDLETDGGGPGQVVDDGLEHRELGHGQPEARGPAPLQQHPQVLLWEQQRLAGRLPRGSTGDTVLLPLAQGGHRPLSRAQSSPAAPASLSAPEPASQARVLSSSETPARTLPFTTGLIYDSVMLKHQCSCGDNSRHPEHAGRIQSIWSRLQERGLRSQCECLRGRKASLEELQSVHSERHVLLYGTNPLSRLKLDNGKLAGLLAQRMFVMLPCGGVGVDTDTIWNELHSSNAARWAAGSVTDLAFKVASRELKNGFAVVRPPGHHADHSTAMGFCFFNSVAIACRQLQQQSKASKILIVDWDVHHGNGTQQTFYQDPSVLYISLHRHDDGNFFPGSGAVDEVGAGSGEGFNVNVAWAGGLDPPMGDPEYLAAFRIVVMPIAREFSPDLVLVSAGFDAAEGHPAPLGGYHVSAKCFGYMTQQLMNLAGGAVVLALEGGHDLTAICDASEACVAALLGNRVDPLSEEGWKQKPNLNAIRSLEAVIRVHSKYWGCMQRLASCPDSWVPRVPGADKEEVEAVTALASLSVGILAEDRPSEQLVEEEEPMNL
As to the kind of experiment: Inhibition of N-terminal GST-tagged recombinant human HDAC7 (518 to end residues) expressed in baculovirus expression system using Boc-Lys (Tfa)-AMC as substrate incubated for 120 mins by fluorescence analysis.

The target of data set [2] is T3, Polyamine deacetylase HDAC10 (Homo sapiens, UniProt Q969S8).
T3 sequence (Q969S8 whole entry): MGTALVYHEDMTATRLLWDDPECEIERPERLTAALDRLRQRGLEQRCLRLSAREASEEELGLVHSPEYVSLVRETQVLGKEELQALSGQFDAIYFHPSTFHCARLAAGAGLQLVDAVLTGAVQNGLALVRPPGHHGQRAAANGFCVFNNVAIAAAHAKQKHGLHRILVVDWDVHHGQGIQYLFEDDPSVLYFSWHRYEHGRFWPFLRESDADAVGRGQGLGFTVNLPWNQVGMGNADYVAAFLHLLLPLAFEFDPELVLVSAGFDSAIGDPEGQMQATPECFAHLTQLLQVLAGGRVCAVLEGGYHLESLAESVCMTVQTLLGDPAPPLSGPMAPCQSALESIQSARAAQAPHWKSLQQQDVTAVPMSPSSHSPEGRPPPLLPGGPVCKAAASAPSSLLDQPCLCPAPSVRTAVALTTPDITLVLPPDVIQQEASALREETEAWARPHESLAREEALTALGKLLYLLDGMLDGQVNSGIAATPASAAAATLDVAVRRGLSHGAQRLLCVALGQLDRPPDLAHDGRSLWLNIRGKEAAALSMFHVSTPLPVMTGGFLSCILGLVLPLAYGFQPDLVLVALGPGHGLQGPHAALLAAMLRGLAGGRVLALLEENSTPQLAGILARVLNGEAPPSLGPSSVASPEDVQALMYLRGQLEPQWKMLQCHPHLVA
As to the kind of experiment: Inhibition of N-terminal FLAG-tagged recombinant human HDAC10 (2 to 631 residues) expressed in baculovirus sf9 insect cells expression system using Boc-Lys (Ac)-AMC as substrate incubated for 120 mins by fluorescence analysis.

The next data set has as its target Histone deacetylase 2 (Homo sapiens, UniProt Q92769). As to the kind of experiment: Inhibition of recombinant human full length HDAC2 using Boc-Lys (Ac)-AMC as substrate incubated for 120 mins by fluorescence analysis.
The target of another data set is Histone deacetylase 1 (Homo sapiens, UniProt Q13547). As to the kind of experiment: Inhibition of C-terminal His6/Flag-tagged recombinant human full length HDAC1 using Boc-Lys (Ac)-AMC as substrate incubated for 120 mins by fluorescence analysis.
Chain of Histone deacetylase 1 (Q13547 whole entry): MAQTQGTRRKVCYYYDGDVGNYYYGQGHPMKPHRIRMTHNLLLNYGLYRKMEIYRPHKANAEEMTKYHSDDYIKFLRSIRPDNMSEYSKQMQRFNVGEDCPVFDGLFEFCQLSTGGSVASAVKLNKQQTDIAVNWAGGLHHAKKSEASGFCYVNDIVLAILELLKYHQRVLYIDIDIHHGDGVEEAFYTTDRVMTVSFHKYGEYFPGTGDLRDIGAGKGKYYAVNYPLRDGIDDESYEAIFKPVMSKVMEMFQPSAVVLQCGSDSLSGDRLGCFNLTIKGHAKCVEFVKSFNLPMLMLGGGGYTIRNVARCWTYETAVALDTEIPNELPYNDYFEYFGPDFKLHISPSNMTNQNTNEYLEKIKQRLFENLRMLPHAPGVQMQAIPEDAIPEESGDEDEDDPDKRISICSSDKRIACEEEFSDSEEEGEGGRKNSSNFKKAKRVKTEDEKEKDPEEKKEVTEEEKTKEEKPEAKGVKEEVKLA
A further data set addresses T4, Histone deacetylase 11 (Homo sapiens, UniProt Q96DB2).
T4 sequence (Q96DB2 whole entry): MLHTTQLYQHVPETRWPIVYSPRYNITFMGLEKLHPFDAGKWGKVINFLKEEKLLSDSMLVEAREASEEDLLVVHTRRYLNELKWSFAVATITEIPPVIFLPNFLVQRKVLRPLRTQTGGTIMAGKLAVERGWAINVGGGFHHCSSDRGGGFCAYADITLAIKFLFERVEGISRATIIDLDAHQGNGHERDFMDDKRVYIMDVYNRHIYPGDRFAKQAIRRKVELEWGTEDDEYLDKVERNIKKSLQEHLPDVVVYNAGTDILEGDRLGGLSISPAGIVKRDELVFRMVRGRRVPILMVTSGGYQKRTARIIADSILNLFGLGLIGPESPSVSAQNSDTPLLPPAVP
As to the kind of experiment: Inhibition of recombinant human full length HDAC11 using Boc-Lys (Tfa)-AMC as substrate incubated for 120 mins by fluorescence analysis.

The nature of data set [3]: Half life in human liver microsomes at 100 uM by LC-MS/MS analysis. Format: ADME, Microsome. On the technique in general: Liver microsomes are a subcellular fraction often used to study metabolism.

The term IC50 denotes the concentration that gives 50% inhibition. A word on the half-life: it is the time in which the quantity being followed falls by half.

A value given as a limit tells only on which side of the number the result lay.

Chain of Histone deacetylase 2 (Q92769 whole entry): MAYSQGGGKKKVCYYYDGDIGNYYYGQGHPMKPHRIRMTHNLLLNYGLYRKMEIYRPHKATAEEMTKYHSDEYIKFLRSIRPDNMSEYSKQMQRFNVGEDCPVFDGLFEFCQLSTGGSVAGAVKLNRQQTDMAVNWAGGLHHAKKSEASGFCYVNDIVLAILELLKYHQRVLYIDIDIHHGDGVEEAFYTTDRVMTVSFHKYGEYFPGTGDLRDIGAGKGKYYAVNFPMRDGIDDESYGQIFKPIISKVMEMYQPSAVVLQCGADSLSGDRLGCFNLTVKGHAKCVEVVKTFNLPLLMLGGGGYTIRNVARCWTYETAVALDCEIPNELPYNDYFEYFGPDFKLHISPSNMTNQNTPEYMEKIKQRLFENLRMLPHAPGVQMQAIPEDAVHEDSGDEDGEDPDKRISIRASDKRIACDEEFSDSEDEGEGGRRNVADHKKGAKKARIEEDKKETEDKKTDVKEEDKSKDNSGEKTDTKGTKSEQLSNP
Chain of Histone deacetylase 4 (P56524 whole entry): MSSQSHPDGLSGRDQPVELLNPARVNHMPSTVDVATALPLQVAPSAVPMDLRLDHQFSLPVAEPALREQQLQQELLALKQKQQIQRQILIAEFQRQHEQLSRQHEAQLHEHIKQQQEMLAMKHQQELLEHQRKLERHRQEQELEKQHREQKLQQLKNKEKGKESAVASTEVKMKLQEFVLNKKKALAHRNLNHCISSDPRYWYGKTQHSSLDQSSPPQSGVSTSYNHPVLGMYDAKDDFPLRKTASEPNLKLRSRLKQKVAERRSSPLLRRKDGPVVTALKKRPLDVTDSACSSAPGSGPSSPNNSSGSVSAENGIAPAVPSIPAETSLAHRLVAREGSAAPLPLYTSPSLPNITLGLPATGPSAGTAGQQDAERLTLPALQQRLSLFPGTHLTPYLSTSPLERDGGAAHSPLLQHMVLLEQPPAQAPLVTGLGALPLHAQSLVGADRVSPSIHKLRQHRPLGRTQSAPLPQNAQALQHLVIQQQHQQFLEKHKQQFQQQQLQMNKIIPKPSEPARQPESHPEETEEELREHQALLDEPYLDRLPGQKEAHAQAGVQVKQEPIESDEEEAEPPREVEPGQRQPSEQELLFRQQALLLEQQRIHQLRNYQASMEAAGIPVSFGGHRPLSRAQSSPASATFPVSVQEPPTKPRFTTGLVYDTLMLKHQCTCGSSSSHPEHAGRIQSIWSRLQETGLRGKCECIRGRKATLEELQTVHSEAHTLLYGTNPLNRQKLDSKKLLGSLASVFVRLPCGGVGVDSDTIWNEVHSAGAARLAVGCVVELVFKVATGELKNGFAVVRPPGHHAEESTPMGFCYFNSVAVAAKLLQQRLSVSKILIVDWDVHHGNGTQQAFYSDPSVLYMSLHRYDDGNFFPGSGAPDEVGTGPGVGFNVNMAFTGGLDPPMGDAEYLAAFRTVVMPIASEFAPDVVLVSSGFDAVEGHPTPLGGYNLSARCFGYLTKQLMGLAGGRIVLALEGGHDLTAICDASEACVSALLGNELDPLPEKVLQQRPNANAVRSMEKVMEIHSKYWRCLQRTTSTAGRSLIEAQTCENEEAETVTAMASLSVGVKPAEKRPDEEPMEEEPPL

For `O=C(NO)c1cccc(CN2C(=O)[C@@H]3CCCN3Cc3ccccc32)c1`, in [1], the IC50 is greater than 300 nM. Same read-out and setting: to `COc1cc2c(cc1OCc1ccccc1)CN1C(=O)CC[C@H]1C(=O)N2Cc1ccc(CC(=O)NO)cc1` belongs 22.3 nM; to `O=C(CCCCCCN1C(=O)[C@@H]2CCCN2Cc2ccccc21)NO`, 294 nM. Turning to `O=C(CCCCCN1C(=O)[C@@H]2CCCN2Cc2ccccc21)NO`, in the data set filed under Homo sapiens, the Ratio IC50 is 51.7. Also, the half-inhibitory concentration (IC50) was 8.45 nM in [1]; 499 nM at Histone deacetylase 4; 731 nM on Histone deacetylase 7; 961 nM in data set [2]; 2680 nM on Histone deacetylase 2; 437 nM at Histone deacetylase 1. On Histone deacetylase 11, the IC50 is greater than 50000 nM. As to `COc1cc2c(cc1OCc1ccccc1)CN1C(=O)CC[C@H]1C(=O)N2Cc1cccc(C(=O)NO)c1`, in [1], the IC50 was determined as 181 nM. In the case of `COc1cc2c(cc1O)CN1C(=O)CC[C@H]1C(=O)N2CCCCCCC(=O)NO`, the IC50 in data set [1] amounted to 13.5 nM. As for `COc1cc2c(cc1O)CN1C(=O)CC[C@H]1C(=O)N2Cc1ccc(C(=O)NO)cc1`, in data set [1], the IC50 is 126 nM. Same read-out and setting: to `COc1cc2c(cc1OCc1ccccc1)CN1C(=O)CC[C@H]1C(=O)N2CCCCCCC(=O)NO` belongs 12.1 nM; to `COc1cc2c(cc1O)CN1C(=O)CC[C@H]1C(=O)N2CCCCCC(=O)NO`, 15.6 nM; to `O=C(CCCCCCCN1C(=O)[C@@H]2CCCN2Cc2ccccc21)NO`, 291 nM. On the same count and under the same terms, to `COc1cc2c(cc1OCc1ccccc1)CN1C(=O)CC[C@H]1C(=O)N2Cc1ccc(C(=O)NO)cc1` belongs 21.2 nM; to `O=C(NO)c1ccccc1CN1C(=O)[C@@H]2CCCN2Cc2ccccc21`, greater than 300 nM; to `COc1cc2c(cc1OCc1ccccc1)CN1C(=O)CC[C@H]1C(=O)N2CCCCCC(=O)NO`, 17.4 nM. Same read-out and setting: to `COc1cc2c(cc1O)CN1C(=O)CC[C@H]1C(=O)N2Cc1cccc(C(=O)NO)c1` belongs 296 nM. Compound `O=C(O)Cc1ccccc1Nc1c(Cl)cccc1Cl` [DICLOFENAC] displayed a half-life at 100 µM in data set [3] of 5.3 min. As to `COc1cc2c(cc1OCc1ccccc1)CN1C(=O)CC[C@H]1C(=O)N2CCCCCCCC(=O)NO`, the IC50 in data set [1] turned out to be 275 nM. Turning to `COc1cc2c(cc1O)CN1C(=O)CC[C@H]1C(=O)N2Cc1ccccc1C(=O)NO`, the IC50 in data set [1] is 279 nM. `COc1cc2c(cc1O)CN1C(=O)CC[C@H]1C(=O)N2CCCCCCCC(=O)NO`: the IC50 in data set [1] worked out at 176 nM. As to `O=C(Cc1ccc(CN2C(=O)[C@@H]3CCCN3Cc3ccccc32)cc1)NO`, the IC50 in [1] amounted to 288 nM. Consider `COc1cc2c(cc1OCc1ccccc1)CN1C(=O)CC[C@H]1C(=O)N2Cc1ccccc1C(=O)NO`, for which the IC50 in data set [1] was determined as 204 nM.
